The values that follow come from patent US20190070165A1, “N-HYDROXYISOQUINOLINEDIONE INHIBITORS OF HBV REPLICATION” (Saint Louis University, priority 2016, published 2019).

The target of one data set is T1, human RNaseH1 (Homo sapiens, UniProt O60930).
T1 construct: made in house; host or cells: E. coli
T1 sequence (O60930 1-286): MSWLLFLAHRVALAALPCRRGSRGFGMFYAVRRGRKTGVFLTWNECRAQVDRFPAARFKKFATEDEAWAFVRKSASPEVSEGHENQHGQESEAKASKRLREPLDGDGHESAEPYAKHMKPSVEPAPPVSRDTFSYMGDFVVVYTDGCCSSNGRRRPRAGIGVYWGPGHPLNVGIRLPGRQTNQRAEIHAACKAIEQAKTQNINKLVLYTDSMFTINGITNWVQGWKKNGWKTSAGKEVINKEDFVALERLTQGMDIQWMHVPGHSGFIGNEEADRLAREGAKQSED
The data set can be described thus: Oligonucleotide-directed RNA cleavage assay, human RNaseH1. The format is biochemical. The settings on record: for IC50: Table 1, quantitative values. The text has this:
RNaseH expression and purification.
Oligonucleotide-directed RNA cleavage assay.

A further data set concerns HBV replication. The data set can be described thus: HBV replication inhibition assay in HepDES19 cells (strand-preferential q-PCR). The data set is classed as cell-based, Hepatitis B virus. To be noted: Hepatitis B virus.
The test system of another data set is HSV-1. The data set can be described thus: HSV-1 replication inhibition assay in Vero cells. The format is cell-based, herpes simplex virus 1. The settings on record: read-out: HSV-1 suppression (log10 at 5 μM), class symbol.
Data set [1] concerns the target T2, HBV RNaseH (Hepatitis B virus genotype D subtype ayw, UniProt P03156). The settings on record: for HBV RNaseH: Table 1, qualitative inhibition in biochemical assay; for Inhibition of HBV RNaseH, Oligonucleotide directed cleavage assay: Table 3, compounds at 100, 60 and 20 μM, compounds 1-91 and 138-140 previously reported (Cai et al., 2014); for inhibition of RNA cleavage by HBV RNaseH: compounds at 100, 60 and 20 μM.
Method: RNaseH expression and purification. […] The enriched extracts were dialyzed into 50 mM HEPES pH 7.3, 300 mM NaCl, 20% glycerol, and 5 mM DTT and stored in liquid nitrogen.
Oligonucleotide-directed RNA cleavage assay. […] This mixture was incubated with test compounds in 50 mM Tris pH 8.0, 190 mM NaCl, 5 mM MgCl2, 3.5 mM DTT, 0.05% NP40, 6% glycerol, and 1% DMSO at 42° C. for 90 minutes. Cleavage products were resolved by denaturing polyacrylamide gel electrophoresis, detected by autoradiography, and quantified using ImageJ. Non-specific background values were determined from the incorrect oligonucleotide negative control lane and subtracted from all experimental values. IC50 values were then calculated with GraphPad Prism using three-parameter log(inhibitor) vs. response non-linear curve fitting with the curve minimum set to zero to reflect background subtraction.
The HBV RNaseH inhibition activity of the 16 previously untested compounds was examined using an oligonucleotide-directed cleavage assay. Compounds were incubated with the HBV RNaseH, a ^32P-labeled RNA substrate plus a complementary DNA oligonucleotide and compounds at 100, 60, and 20 μM and the amount of the RNA cleavage products was measured following resolution on an acrylamide gel.
Briefly, a ^32P-labeled RNA was combined with a DNA oligonucleotide and the RNA:DNA substrate was incubated in the presence of the RNaseH and test compounds in 50 mM tris pH 8.0, 190 mM NaCl, 5 mM MgCl2, 3.5 mM DTT, 0.05% NP40, 6% glycerol, and 1% DMSO at 42° C. for 90 minutes. The products were resolved by gel electrophoresis and detected by audioradioagraphy.

A further data set deals with HIV replication. To be noted: literature values (Billamboz et al., 2011b; Suchaud et al., 2014); cited from earlier work.
The target of data set [2] is T2, HBV RNaseH. The data set can be described thus: Molecular beacon RNaseH assay. The settings on record: for inhibition in the molecular beacon assay: 2.1 μg purified HBV RNaseH; for Inhibition of HBV RNaseH, Molecular Beacon cleavage assay: Table 3, 0 to 500 μM.
The next data set is described as follows: MTT cytotoxicity assay. The data set is classed as cell-based. The settings on record: human; Table 2, HepDES19 cells. On the procedure:
MTT cytotoxicity assays. 1.0×10^4 HepDES19 cells per well were seeded in 96-well plates and incubated in DMEM with 10% FBS plus 1% P/S, 1% non-essential amino acids, and 1% glutamine. Compounds were diluted in medium to the indicated concentrations plus 1% DMSO and added to cells 24 hours after plating, with each concentration tested in triplicate. Medium containing the compound was refreshed daily for the next two days. Thiazolyl blue tetrazolium bromide (MTT, Sigma-Aldrich) was added to 0.25 mg/mL, the cultures were incubated for 60 minutes, metabolites were solubilized in acidic isopropanol, and absorbance was read at 570 nm.
A general note: Tetrazolium dyes change colour on reduction, which living cells bring about.

Data set [3] is described as follows: MTS cytotoxicity assay (CellTiter 96). To be noted: human. On the procedure: (§1) HepDES19 cells were seeded at 1×10^4 cells per well in a 96 well plate in the absence of tetracycline. The test compounds were applied in triplicate to the cells 48 hours later and the cells were incubated for 72 hours. Cell viability was measured using the CellTiter 96 Aqueous Non-Radioactive Cell Proliferation Assay (Promega). [3-(4,5-dimethylthiazol-2-yl)-5-(3-carboxymethoxyphenyl)-2-(4-sulfophenyl)-2H-tetrazolium, inner salt] (MTS) and phenazine methosulfate (PMS) solution at 2 mg/mL MTS and 0.043 mg/mL PMS were added to the medium, the cells were incubated for two hours at 37° C., and absorbance was measured at 490 nm. […] Neutral red was added to the media at a final concentration of 40 μg/mL. Cells were washed with PBS and incubated with neutral red medium for two hours at 37° C. The neutral red medium was removed and the cells were washed with PBS. […] Lactate dehydrogenase (LDH) release was measured using the LDH-cytotoxicity colorimetric assay kit (BioVision). Cells were lysed with 1% Triton-X to provide the high control and DMSO vehicle treatment was the low control. Supernatants were collected and transferred to a fresh 96 well plate, and LDH reaction mixture containing the catalyst and dye solution was added. The reaction was incubated for 15-20 minutes at room temperature in a dark box and absorbance was measured at 490 nm. Percent cytotoxicity was calculated as [(test sample−low control)/([…])]×100.

The next data set relates to HepDES19 cells. The data set can be described thus: MTS cytotoxicity assay (CellTiter 96). To be noted: CC50 by MTS assay over EC50. As to the method: as §1
The nature of data set [4]: Neutral red (NR) cytotoxicity assay. The data set is classed as cell-based. To be noted: human, HepDES19 cells, read-out: Toxicity in HepDES19, NR (CC50). On the procedure:
(§2) To further evaluate potential cytotoxicity of these hits, the effect of the compounds was determined for the uptake of neutral red (NR) by the lysosomes and lactate dehydrogenase (LDH) release into the supernatant due to cell membrane permeability. […] Overall, the TI values in Table 3 and FIG. 4 indicate that cytotoxicity was not the cause of antiviral efficacy, although it may have contributed to the apparent efficacy for #84, 85, 90, and 91, which all have TI values below 5.

The nature of data set [5]: Lactate dehydrogenase (LDH) release cytotoxicity assay. The settings on record: human, HepDES19 cells, read-out: Toxicity in HepDES19, LDH (CC50). The format is cell-based. On the procedure: as §2
A short description of data set [6]: Stability in mouse liver microsomes. The data set is classed as in vitro ADME. In general terms: Microsomes from liver hold many membrane-bound enzymes, among them those of drug oxidation.
A further data set has as its system HBV infections. To be noted: cited from earlier work.
Where [7] appears, read: HepDES19, read-out: HBV replication inhibition (EC50, μm).
The mark [8] stands for this setting: HepDES19 cells, read-out: EC50, HBV replication.
The mark [9] stands for this setting: Table 2, HepDES19 cells, read-out: EC50.
The mark [10] stands for this setting: Human alphaherpesvirus 1, 24 h, 5 μM, Vero cells.

Read-outs that look alike come from different tables or passages of the source.

T2 sequence (P03156 671-832): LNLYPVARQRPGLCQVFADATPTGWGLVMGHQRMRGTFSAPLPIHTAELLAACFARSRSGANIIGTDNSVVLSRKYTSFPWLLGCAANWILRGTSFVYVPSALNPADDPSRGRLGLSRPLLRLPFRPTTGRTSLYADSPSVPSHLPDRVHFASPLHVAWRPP

Regarding `COC(=O)C1C(=O)N(O)C(=O)c2ccccc21` (centres unmarked) [Compound 81], the IC50 – broadly, the concentration that inhibits the measured activity by half – against human RNaseH1 amounted to 4.9 µM. Further, the EC50 (commonly the concentration needed to bring the measured effect to its halfway point) in the data set with HBV replication (setting [7]) was 4.4 ± 3 µM; in the data set on HBV replication (setting [8]) it was 4.4 µM; in the data set with HBV replication (setting [9]), 4 µM; in the data set on HIV replication, 13.4 µM. Moreover, the log reduction at 5 µM in the data set on HSV-1 (Human alphaherpesvirus 1, Vero, 24 h) was less than 1. The “HBV RNaseH” value on HBV RNaseH [1] is reported as “+/−”. Moreover, the “Inhibition of HBV RNaseH, Oligonucleotide directed cleavage assay” value on HBV RNaseH [1] is reported as “− (No inhibition detected at 100 μM)”. The “inhibition of RNA cleavage by HBV RNaseH” value on HBV RNaseH [1] is given as “negative”. Further, at HBV RNaseH [2], the “inhibition in the molecular beacon assay” value was “inhibited”. Also, the “Inhibition of HBV RNaseH, Molecular Beacon cleavage assay” value at HBV RNaseH [2] is listed as “+ (Dose-dependent inhibition at ≤500 μM)”.

Regarding `O=C(Nc1ccc2c(c1)C(=O)N(O)C(=O)C2C(=O)NCc1ccc(F)cc1)c1ccccc1` (centres unmarked) [Compound 86], the IC50 against human RNaseH1 was 4 µM. Also, the EC50 is 1.4 ± 0.3 µM in the data set on HBV replication (setting [7]), 1.4 µM with HBV replication (setting [8]), 1.4 µM in the data set with HBV replication (setting [9]) and greater than 21 µM in the data set with HIV replication. Moreover, the CC50 (as a rule, the concentration giving 50% cytotoxicity) in “MTT cytotoxicity assay” was greater than 100 µM. Further, the 50% cytotoxic concentration (CC50) at 72 h in data set [3] is 99 ± 2 µM; in data set [4], 52 ± 11 µM; in data set [5], greater than 100 µM. Further, the “TI (therapeutic index, CC50(MTS)/EC50)” value with HepDES19 cells was determined as 71. Further, the log reduction at 5 µM in the data set on HSV-1 (setting [10]) is less than 1. Also, the “HBV RNaseH” value on HBV RNaseH [1] is given as “+/−”. Also, the “Inhibition of HBV RNaseH, Oligonucleotide directed cleavage assay” value on HBV RNaseH [1] was “− (No inhibition detected at 100 μM)”. For the same compound, at HBV RNaseH [2], the “Inhibition of HBV RNaseH, Molecular Beacon cleavage assay” value is “− (No inhibition detected at 500 μM)”.

As to `C/C(=N\c1ccccc1NO)c1c(C)cc(=O)n(O)c1O` [Compound 208], the “inhibition of huRNaseH1” value against human RNaseH1 (compounds at 100, 60 and 20 μM) is given as “did not inhibit the huRNaseH1 at 100 μM”. Besides, the EC50 is 0.69 µM in the data set with HBV replication (HepDES19, read-out: EC50, HBV replication) and 0.69 ± 0.2 µM in the data set with HBV replication (setting [7]). Further, the CC50 at 72 h in [3] turned out to be 15 ± 7 µM; in data set [4] it was 13 ± 1 µM; in data set [5], 12 ± 0.1 µM. Besides, in the data set on HSV-1 (setting [10]), the log reduction at 5 µM was less than 1. Further, the “stability in mouse liver microsomes” value in data set [6] was “stable”. Besides, the “Inhibition of HBV RNaseH, Oligonucleotide directed cleavage assay” value at HBV RNaseH [1] is listed as “+ (Dose-dependent inhibition at ≤100 μM)”. For the same compound, at HBV RNaseH [1], the “inhibition of RNA cleavage by HBV RNaseH” value is “inhibited RNA cleavage by the HBV RNaseH”. The “inhibition in the molecular beacon assay” value against HBV RNaseH [2] was “inhibited”. Further, at HBV RNaseH [2], the “Inhibition of HBV RNaseH, Molecular Beacon cleavage assay” value is recorded as “+ (Dose-dependent inhibition at ≤500 μM)”.

Take Interferon α: the “patients with sustained clinical improvement” value with HBV infections is reported as 20-30%.
